Reference: patent US6893830B1, “Method of screening oxysterol activation of LXRα” (The Board of Regents of the University of Texas System, priority 1996, dated 2005)
Where two headings read alike, the source gives them in different places. Each block holds one compound with its values, some of them ahead of it.

Key:
LXRα = target: T1, LXRα (Homo sapiens, UniProt Q13133); experiment: LXRα cotransfection assay with TK-LXREx3-LUC reporter in CV-1 cells; assay type: cell-based; set-up: expressed in transfected cells; host or cells: CV-1 monkey kidney cells; conditions: for LXRα activity: 10 μM, CV-1 cotransfection assay
T1 sequence (Q13133 1-447): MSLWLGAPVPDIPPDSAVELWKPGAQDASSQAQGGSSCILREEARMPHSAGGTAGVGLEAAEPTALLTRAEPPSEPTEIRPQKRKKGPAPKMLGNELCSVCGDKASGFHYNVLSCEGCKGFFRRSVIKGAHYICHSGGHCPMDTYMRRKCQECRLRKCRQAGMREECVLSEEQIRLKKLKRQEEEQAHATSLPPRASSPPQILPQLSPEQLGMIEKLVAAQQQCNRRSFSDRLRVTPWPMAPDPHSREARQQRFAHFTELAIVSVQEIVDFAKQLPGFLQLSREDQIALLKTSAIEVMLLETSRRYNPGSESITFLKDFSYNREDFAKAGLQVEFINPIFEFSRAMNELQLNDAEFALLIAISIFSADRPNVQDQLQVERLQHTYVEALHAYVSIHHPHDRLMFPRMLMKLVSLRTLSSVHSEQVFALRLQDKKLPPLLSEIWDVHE
T1 sequence (P19793 1-462 partner): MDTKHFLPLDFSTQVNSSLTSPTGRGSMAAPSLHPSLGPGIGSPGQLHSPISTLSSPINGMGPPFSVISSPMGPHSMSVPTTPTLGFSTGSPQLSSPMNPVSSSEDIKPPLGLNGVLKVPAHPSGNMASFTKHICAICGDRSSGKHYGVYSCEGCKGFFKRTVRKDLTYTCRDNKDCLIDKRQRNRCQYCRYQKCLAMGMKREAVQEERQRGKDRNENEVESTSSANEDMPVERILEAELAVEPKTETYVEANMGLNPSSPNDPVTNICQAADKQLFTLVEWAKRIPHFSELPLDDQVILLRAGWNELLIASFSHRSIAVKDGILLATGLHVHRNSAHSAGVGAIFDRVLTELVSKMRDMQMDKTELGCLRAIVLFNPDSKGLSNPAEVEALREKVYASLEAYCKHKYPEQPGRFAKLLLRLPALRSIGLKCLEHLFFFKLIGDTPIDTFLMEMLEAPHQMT
Experimental: FIG. 1 Human LXRα is activated by gonad sterols. (A) Transactivation of LXRα ligand binding domain (LBD) with testis extract. CV-1 cells were cotransfected with a GAL4 responsive luciferase reporter plasmid and an expression plasmid encoding no receptor or a chimeric receptor composed of the GAL4 DNA binding domain fused to the LXRα ligand binding domain (LBD) (GAL4-LXRα)^3. After transfection, cells were treated with ethanol (ETOH) or 1% of the concentrated testis extract. (B) Transactivation of LXRα with follicular fluid meiosis activating substance (FF-MAS). CV-1 cells were cotransfected with an LXRα responsive reporter plasmid and the receptor expression plasmids for LXRα alone or with RXRα. After transfection, cells were treated with ETOH or […] FF-MAS.
FIG. 2 LXRα is activated by a specific subset of oxysterols. (A) Specificity of LXRα activators. Shown is a representative group from 70 compounds evaluated for LXRα activity (10 μM) in cotransfection assays as described in FIG. 1B. […] (B) The the structure-activity relationship of LXRα activators. Data compiled from FIG. 2A and other experiments (not shown) reveal that the position of the hydroxyl on the cholesterol backbone is a determinant of LXRα activity. […] Dose response curves for LXRα activators were generated in CV-1 cell cotransfection assays as described in FIG. 1B.
Organic extraction of breeding bull testis was performed as described^6. Briefly, 12 grams of lyophilized testis was extracted with N-heptane and lipids were concentrated by roto-evaporation. Aliquots representing 1% of this material were assayed. FF-MAS was synthesized as described^18. Transient transfections in CV-1 monkey kidney cells were performed in triplicate in 48-well plates as described^3 with media containing 5% cabosil-treated calf bovine serum.
Transfections were performed in FIG. 1A using 80 ng of TK-MH100x4-LUC reporter and 30 ng of CMX-GAL4-hLXRα expression plasmids per well; and in FIG. 1B using 50 ng of TK-LXREx3-LUC reporter and 25 ng of CMX-hLXRa alone or with 25 ng CMX-hRXRa expression plasmids per well. Candidate ligands were dissolved in ethanol and added 8 hours post-transfection. As an internal standard, 50 ng of CMX-β gal was included in all transfections. All plasmid constructs and determinations of luciferase and β-galactosidase activities have been described^3. To construct CMX-LXRα, the hLXRα cDNA insert was excised from the plasmid pXR2DRV (Willy, et al., 1995, Genes Dev. 9: 1033-1045) with Kpnl and BamHI and was ligated into the expression vector CMX. CMX-βgal was constructed by ligating the β-galactosidase gene into the expression vector CMX. Chimeric Gal4-receptor expression plasmid (CMX-GAL4-LXRα) was constructed by first ligating the GAL4 portion of pSC424 (Sadowski, I. and M. Ptashne, 1989, Nucleic Acids Res. 19: 7539-7530) into the HindIII/SacI sites of pCMX (Umesono, et al., 1991, Cell 65: 1255-1266) to create pCMX-GAL4. This vector contains the CMV promoter fused to the coding sequence for GAL4 (1-147), followed by inframe polylinker cloning sites and translational stop codons. The cDNAs encoding the ligand-binding domain (LBD) of hLXRα (amino acids 166-447) was then ligated into the polylinker to create CMX-GAL4-LXRα.
Reporter plasmids for these studies were constructed by ligating the appropriate oligonucleotides into the HindIII site of the TK-LUC vector to create TK-LXREx3-LUC, TK-MH100x4-LUC (Kang, T., et al., 1993, J. Biol Chem. 268: 9629-9635). The sense strand of the LXRE oligonucleotide used to construct the reporter plasmid TK-LXREx3-LUC was 5′agctt[…]3′ (SEQ. ID. NO. 1). All constructs were verified by sequencing. Data are presented as relative light units (RLUs) and represent the mean of triplicate assays±standard error. […]

RXR/LXR heterodimer = RXR/LXR heterodimer activation, dose response in CV-1 cells with TK-LXREx3-LUC; assay type: cell-based, human; conditions: LXRα expression plasmid, dose-dependent
Experimental: TK-DR-4-LUC; human vitamin D receptor (VDR)^24, TK-DR^3-LUC; human peroxisome proliferator-activated receptor-α (PPARα)^25, TK-PPREx3-LUC; human farnesol activated receptor (FXR)^11, ΔMTV-EcREx5-LUC; human estrogen receptor (ER)^26, ΔMTV-ERE-LUC; human glucocorticoid receptor (GR)^27, MTV-LUC; Drosophila ecdysone receptor (usp/EcR)^15, ΔMTV-EcREx5-LUC. Cells were treated with ETOH or 6 μM 22(R)-hydroxycholesterol. […] FIG. 3(A)-3(D) Activation of LXRα by 22(R)-hydroxycholesterol in Drosophila (SL-2) cells. […] CV-1 cells were cotransfected with TK-LXREx3-LUC reporter plasmid and expression plasmids containing the indicated receptor combinations, and then treated with the indicated ligands. […] CV-1 cells cotransfected with the LXRα expression plasmid and TK-LXREx3-LUC reporter were treated with 9-cis RA, 22(R)-hydroxycholesterol, or both, at the indicated concentrations.
In FIG. 3B. Drosophila SL-2 cells were transfected and assayed as previously described^5 in 6-well plates with […] A5C-hLXRα or A5C-hLXRα, 0.5 mg ADH-LXREx2-LUC, 0.2 mg A5C-βGAL and […] PGEM4 carrier DNA per well.
A subset of receptors that function as RXR heterodimers have the unique ability to be activated by their own ligand, the RXR ligand (i.e., 9-cis retinoic acid), or both ligands together^11,17. […]

LXRα protein = target: T2, LXRα protein (Homo sapiens, UniProt Q13133); experiment: Limited protease protection assay (chymotrypsin) of [35S]-labelled Flag-LXRα; assay type: binding; conditions: increasing concentrations of chymotrypsin, SDS-PAGE and autoradiography
T2 construct: made in house; host or cells: in vitro synthesis (cell-free translation)
T2 sequence (Q13133 1-447): T1 sequence (Q13133 1-447)
Experimental: FIG. 4, Protease protection of LXRα with 22(R)-hydroxycholesterol. [^35S]-labelled LXRα protein was incubated with (A) ethanol (ETOH) control or (B) 22(R)-hydroxycholesterol, subjected to protease digestion with increasing amounts of chymotrypsin, and analyzed by SDS-PAGE and autoradiography.
In vitro synthesized [^35S]-labelled Flag-LXRα protein was subjected to protease digestion with α-chymotrysin. For these studies, LXRα with a Flag epitope fused to the amino terminus was used.
The unavailability of radiolabelled LXRα activators prevents direct ligand binding analysis. To address the possibility that 22(R)-hydroxycholesterol interacts with LXRα, a limited protease protection assay was performed (FIG. 4). In this experiment, several proteolytic fragments were generated when LXRα protein was incubated with increasing concentrations of the protease, chymotrypsin. […] The presence of a specific ligand-protected ˜30 kDa fragment has also been observed during similar analyses with other nuclear receptors. Thus, these protease protection studies support the finding that 22(R)-hydroxycholesterol interacts with LXRα.

[1] = CV-1 cell cotransfection, dose response curves, read-out: EC50 for LXRα activators

Structure (SMILES): CC(C)CCC[C@](C)(O)[C@H]1CC[C@H]2[C@@H]3CC=C4C[C@@H](O)CC[C@]4(C)[C@H]3CC[C@@]21C [20(S)-hydroxycholesterol]
EC50 (LXRα; [1]): 1.6 µM

ligand-protected 30 kDa chymotrypsin fragment of LXRα (LXRα protein): not
Structure (SMILES): CC1=C(/C=C/C(C)=C\C=C\C(C)=C\C(=O)O)C(C)(C)CCC1 [9-cis retinoic acid, reference compound]
maximal induction (RXR/LXR heterodimer): 7 fold

LXRα activity (LXRα): no LXRα activity
Structure (SMILES): CC(C)=CCCC(C)=CCCC(C)=CCO [farnesol, reference compound]

Structure (SMILES): CC(C)CCC[C@@H](C)[C@H]1CC[C@H]2[C@@H]3[C@@H](O)C=C4C[C@@H](O)CC[C@]4(C)[C@H]3CC[C@]12C [7β-hydroxycholesterol]
EC50 (LXRα; [1]): 3.5 µM

EC50 (LXRα; [1]): 3.5 µM
induction of transcription by LXRα (LXRα; CV-1 cells, wild-type LXRα, TK-LXREx3-LUC, 50 mM FF-MAS vs ETOH): 5-6 fold
Structure (SMILES): CC(C)=CCC[C@@H](C)[C@H]1CC=C2C3=C(CC[C@@]21C)[C@@]1(C)CC[C@H](O)C(C)(C)[C@@H]1CC3 [FF-MAS]

Structure (SMILES): CC(C)C(O)CC[C@@H](C)[C@H]1CC[C@H]2[C@@H]3CC=C4C[C@@H](O)CC[C@]4(C)[C@H]3CC[C@]12C (some centres unmarked) [24-hydroxycholesterol]
EC50 (LXRα): 1.6 µM

ligand-protected 30 kDa chymotrypsin fragment of LXRα (LXRα protein): not
Structure (SMILES): CC(C)CCC[C@@H](C)[C@H]1CC[C@H]2[C@@H]3CC=C4C[C@@H](O)CC[C@]4(C)[C@H]3CC[C@]12C [cholesterol]

Structure (SMILES): CC(C)CC[C@H](O)[C@@H](C)[C@H]1CC[C@H]2[C@@H]3CC=C4C[C@@H](O)CC[C@]4(C)[C@H]3CC[C@]12C [22(S)-hydroxycholesterol]
LXRα activity (LXRα): completely inactive

EC50 (LXRα; [1]): 3.5 µM
Structure (SMILES): C[C@H](CCCC(C)(C)O)[C@H]1CC[C@H]2[C@@H]3CC=C4C[C@@H](O)CC[C@]4(C)[C@H]3CC[C@]12C [25-hydroxycholesterol]
